Measurements published in PMC11273431, “Isolation, Characterization, and Functional Properties of Antioxidant Peptides from Mulberry Leaf Enzymatic Hydrolysates” (Antioxidants, 2024).

Tests used:
Assay type in all cases: cell-based
HepG2 cells [1] = test: Hoechst 33258 staining, chromatin damage; conditions: 5–10 μg/mL pretreatment 6 h, then H2O2 160 μM 24 h; fluorescence microscopy
Description: (§1) HepG2 cells were treated as in Section 2.10. Hoechst 33258 (Item No. C0021) and JC-1 (Item No. M8650) staining was performed according to the instructions provided in the staining kit.
Hoechst 33258 staining was directly observed using a fluorescence microscope.

HepG2 cells [2] = test: Protective effect against H2O2-induced oxidative damage, CCK-8; conditions: peptide 100 μg/mL pretreatment 6 h, then H2O2 160 μM 24 h
Description: We first established a H2O2-induced oxidative damage model in HepG2 cells. HepG2 cells (1 × 10^5 cells/mL) in a volume of 100 μL were seeded in a 96-well culture plate and incubated at 37 °C for 24 h. The control group and damage group received 100 μL of DMEM, the positive control group received 100 μL of 100 μg/mL Trolox, and the experimental group received 100 μL of DMEM containing different concentrations of peptides.
After culturing for another 6 h, the experimental and damage groups were exposed to H2O2 (160 μM) for 24 h, while the control group received an equal volume of DMEM. Finally, cell viability was measured following the procedures in Section 2.8.

HepG2 cells [3] = test: Apoptosis, Annexin V-FITC/PI flow cytometry; conditions: 5–10 μg/mL pretreatment 6 h, then H2O2 160 μM 24 h
Description: HepG2 cells were treated as in Section 2.10. After that, cells were collected, rinsed twice with PBS, and then resuspended in Apoptosis Detection Staining solution (containing 2 μL of Annexin V-FITC dye, 5 μL of PI dye, and 100 μL of Binding buffer).
After 15 min of dark incubation at room temperature, cells were analyzed for their apoptotic status (Ex = 488 nm, FL1 EM = 515 nm, FL2 EM = 560 nm) using the BD Fortessa flow cytometer (Becton Dickinson, Franklin Lakes, NJ, USA), and the data were analyzed with Flowjo software 10.0.

HepG2 cells [4] = test: JC-1 staining, mitochondrial membrane potential; conditions: 5–10 μg/mL pretreatment 6 h, then H2O2 160 μM 24 h; for JC-1 green fluorescence: fluorescence microscopy; for JC-1 red/green fluorescence ratio: microplate reader, versus H2O2 damage group
Description: as §1
After JC-1 staining, the samples were examined under a fluorescence microscope. […] The red/green fluorescence ratio can be considered a direct indicator of the state of mitochondrial polarization.

SOD = SOD activity in HepG2 cells; conditions: 5–10 μg/mL pretreatment 6 h, then H2O2 160 μM 24 h; p < 0.01
Description: (§2) First, HepG2 cells (1 × 10^5 cells/mL) in a volume of 2 mL were seeded in a 6-well culture plate and incubated at 37 °C for 24 h. Experimental grouping and treatments were the same as in Section 2.9. Next, cells were collected, and cell lysis was performed using RIPA cell lysis solution. The protein concentration in cell lysates was determined by the BCA protein assay kit. SOD (Item No. A001-3-2) and CAT (Item No. A007-1-1) activity assays were carried out according to the instructions provided with the corresponding assay kits.

ROS in HepG2 cells = test: ROS levels, DCFH-DA fluorescence; conditions: 5–10 μg/mL pretreatment 6 h, then H2O2 160 μM 24 h; p < 0.01
Description: HepG2 cells were treated as in Section 2.10. After that, the supernatant was discarded, and cells were gently washed twice with PBS. Subsequently, the cells were incubated with DMEM containing 10 μM DCFH2-DA at 37 °C for 20 min. After the incubation, the cells were carefully washed twice with PBS, and then 1 mL of DMEM was added, after which the cells were observed under a fluorescence microscope.
The contents of ROS were indicated by DCF fluorescence and quantified using excitation and emission filters of 488 and 525 nm, respectively. The ROS levels were expressed as a percentage of the blank control values.

CAT = CAT activity in HepG2 cells; conditions: 5–10 μg/mL pretreatment 6 h, then H2O2 160 μM 24 h; p < 0.01
Description: as §2

HepG2 cells [5] = test: Cell viability, CCK-8; conditions: 160 μM H2O2, 24 h
Description: HepG2 cells were cultured in a complete medium (90% DMEM + 10% FBS + 100 units/mL penicillin and 100 μg/mL streptomycin) at 37 °C, 5% CO2, and 90% relative humidity. The Cell Counting Kit-8 (CCK-8) Assay Kit was used to detect the effect of H2O2 and peptides on cell viability. HepG2 cells (1 × 10^5 cells/mL) were pre-seeded in a 96-well culture plate overnight and then treated with H2O2 and peptides at 37 °C for 24 h. Cell viability was assessed with the CCK-8 kit (Item No. BS350C) according to the protocol supplied by the manufacturer.

Molecule | Hoechst 33258 nuclear fluorescence (chromatin damage) (HepG2 cells [1]) | Mitigating effect on H2O2-induced oxidative damage (cell survival rate) (HepG2 cells [2]) | Apoptosis rate (HepG2 cells [3]) | JC-1 green fluorescence (HepG2 cells [4]) | JC-1 red/green fluorescence ratio (HepG2 cells [4]) | SOD activity (SOD) | Cellular DCF fluorescence intensity (ROS) (ROS in HepG2 cells) | CAT activity (CAT) | Cell survival rate (HepG2 cells [5])
EGDAGAQGPPGPAGPAGER [Peptide P6] | reduced blue fluorescence and fewer bright spots | significantly better than those of the other peptides | significantly reduced the apoptosis rate | reduced green fluorescence | effectively alleviated | significant increase | significantly reduced | significant increase | –
RPGPSPGVGAPGK [Peptide P7] | reduced blue fluorescence and fewer bright spots | significantly better than those of the other peptides | significantly reduced the apoptosis rate | reduced green fluorescence | effectively alleviated | significant increase | significantly reduced | significant increase | –
OO [Peptide H2O2, hydrogen peroxide] | – | – | – | – | – | – | – | – | ~50%
